In patent US8222260B2, “Substituted 6-anilinopurine derivatives as inhibitors of cytokinin oxidase/dehydrogenase and preparations containing these derivatives” (Univerzita Palackego V Olomouci, priority 2007, dated 2012):

Experiments:
[1] = system: cytokinin-dependent tobacco callus Nicotiana tabacum L. cv. Wisconsin 38; assay: Tobacco callus biotest (plant cell division); assay type: cell-based; settings: at the concentration with highest activity, relative to 10^−5 M kinetin
[2] = system: erytroid leukemia cell line K-562; assay: Calcein AM cytotoxicity assay; assay type: cell-based, human; settings: Homo sapiens, K562, 72 hours
Outline: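 Cells seeded at 2.500-30.000 per well, pre-incubated 24 h, then exposed 72 h at 37 °C to six 3-fold dilutions (top 166.6 μM), in triplicate. Calcein AM added to 1 μg/ml for 1 h; fluorescence gives growth inhibition, GI50 taken from dose-response curves.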

[3] = system: T-lymphoblastic leukemia cell line CEM; assay: Calcein AM cytotoxicity assay; assay type: cell-based, human; settings: Homo sapiens, 72 hours
[4] = system: Transgenic 35S:AtCKX1 Arabidopsis seedlings; assay: Foliar spray of CKX overproducing Arabidopsis seedlings grown in soil, phenotype complementation; assay type: in vivo; settings: 10 μM sprayed every second day for 1 month
Protocol: Transgenic 35S:AtCKX1 Arabidopsis and 35S:AtCKX1 and 35S:AtCKX2 tobacco seedlings grown in soil in the greenhouse were systematically treated with 10 μM of compound 12. Areal parts of the wild type and transgenic seedlings were sprayed every second day for 1 month with aqueous solution of compound 12 containing 0.01% Silwet L-77 wetting agent.

[5] = system: Human diploid fibroblasts SNF25; assay: In vitro toxicity by evaluation of growth curve; assay type: cell-based; settings: 0-12.5 μM, 12 days, SNF25 passage 27
Protocol: Human diploid fibroblasts SNF25 (passage 27) were seeded in 24-well plate (10.000 cells/well). The cultivation medium (DMEM containing 5 g/l glucose, 2 mM glutamin, 100 U/ml penicillin, 100 μg/ml streptomycin and 10% fetal calf serum) was removed and replaced with the cultivation medium containing the tested compound in concentration range of 0-12.5 μM. Each concentration was tested in triplicate. The cell number was counted during next 12 days.

Row | SMILES | Activity (%) [10^−5 mol · l^−1 K = 100%] [1] | GI50 [2] | GI50 [3] | complementation of wild-type phenotype (release from growth inhibition) [4] | growth curve (cell number) [5]
1 | Fc1cccc(Nc2nc(S)nc3[nH]cnc23)c1 [Compound 83] | 102.5% | – | – | – | –
2 | Oc1cccc(Nc2nc(Cl)nc3nc[nH]c23)c1 [Compound 9, 2-Chloro-6-(3-hydroxyanilino)purine] | 116.2% | – | – | – | –
3 | Clc1ccc(Nc2nc(Cl)nc3[nH]cnc23)cc1 [Compound 4] | 102% | > 167 µM | > 167 µM | – | –
4 | COc1cccc(Nc2nc(F)nc3nc[nH]c23)c1 [Compound 51, 2-Fluoro-6-(3-methoxyanilino)purine] | 120.5% | – | – | – | –
5 | Clc1cccc(Nc2nc(Cl)nc3nc[nH]c23)c1 [Compound 3, 2-Chloro-6-(3-chloroanilino)purine] | 110% | – | > 167 µM | – | –
6 | COc1cccc(Nc2nc(Cl)nc3nc[nH]c23)c1 [Compound 12, 2-Chloro-6-(3-methoxyanilino)purine] | 122% | – | – | restauration of wild type phenotype | –
7 | Fc1nc(Nc2cccc(Cl)c2)c2nc[nH]c2n1 [Compound 42] | 121% | – | > 167 µM | – | –
8 | Oc1cccc(Nc2nc(F)nc3[nH]cnc23)c1 [Compound 48] | 104.2% | > 167 µM | – | – | –
9 | Fc1nc(Nc2ccccc2)c2nc[nH]c2n1 [Compound 40] | 108.1% | – | > 167 µM | – | –
10 | Fc1cccc(Nc2nc(Cl)nc3nc[nH]c23)c1 [Compound 6, 2-Chloro-6-(3-fluoroanilino)purine] | 119.7% | > 167 µM | – | – | –
11 | Clc1nc(Nc2ccccc2)c2[nH]cnc2n1 [Compound 1, 2-Chloro-6-anilinopurine] | – | – | > 167 µM | – | not toxic against human diploid fibroblasts
12 | c1coc(CNc2ncnc3nc[nH]c23)c1 [Kinetin, 6-furfurylaminopurine, reference compound] | 100% | – | 155 µM | – | –
